Values quoted from earlier work, collected in patent publication US20060241549A1, “Apparatus and method for precise ozone/oxygen delivery applied to the treatment of dermatological conditions, including gas gangrene, and related disorders” (priority 2005, published 2006).

Conditions: as a gas, at room temperature

For `O=[O+][O-]` [ozone, Ozone], the half-life is given as “approximately 50 minutes”.
